Values of other authors, collected in patent US8412321B2, “Method of identifying strategies for treatment or prevention of ventricular fibrillation and ventricular tachycardia” (Cornell Research Foundation, Inc., priority 2004, dated 2013).

Tested on: arterially perfused canine ventricle

COc1ccc(CCN(C)CCCC(C#N)(c2ccc(OC)c(OC)c2)C(C)C)cc1OC (stereo not drawn) [verapamil]
slope of the APD restitution relation (after exposure to verapamil, FIG. 14A): reduction in the slope of the APD restitution relation
magnitude of APD alternans (AM) (pacing at different basic cycle lengths, FIG. 14B): reduction in the magnitude of APD alternans
composite FFT of MAP recordings during VF (verapamil added after 35 min of VF, FIG. 14C): converted the broad FFT spectra during VF to a single frequency
